In patent publication US20110245231A1, “ACTIVE SUBSTANCE AND PHARMACEUTICAL COMPOSITION FOR TREATING ALCOHOL DEPENDENCE, AND A METHOD FOR OBTAINING AND THE USE OF SAID ACTIVE SUBSTANCE” (Alla Chem, LLC, priority 2009, published 2011):

Test system: mice with formed alcohol dependence (male mice of SHK line)
Experiment: Alcohol-deprivation effect (ADE): voluntary consumption of 10% alcohol in a 90-minute test before and after 4-day deprivation
Assay type: in vivo
Conditions: for Alcohol consumption before deprivation: baseline test before deprivation and dosing; for ADE (ADE index): index >0.5 = alcohol dependence
Experimental: Alcohol dependence is determined by the increasing of alcohol consumption induced by short-time deprivation of alcohol. The occurrence and the level of this increasing is a criterion for self-control loss during the period of heavy drinking [Maisky A. I., Salimov R. M. Procedural guidelines for investigation of anti-alcohol medications. The guidebook for experimental (preclinical) investigation of novel pharmacological substances. Ed. Harbiev R. U., publ. “Medicine”, Moscow, 2005, p. 342-356].
For overcoming of the possible first-use gustatory rejection of alcohol solution during the first 6 days of the experiment male mice of SHK line were not given water, they had access only to alcohol solution of increasing concentration (3%—on the first and second days, 6%—on the third and fourth days and 10%—on the fifth and sixth days) [Mc Kinzie et al., Alcohol Clin Exp Res. 1998, 22(7):1584-90]. At that, free access to food was provided. During the next 2 months the animals had free access to pure water, food and 10% solution of alcohol.
For quantitative estimation of alcohol motivation the amount of voluntary alcohol (10% solution) consumption during the 90-minute's test after 4-day's alcohol deprivation was compared with the amount of alcohol consumed during the test carried out before 4-day's alcohol deprivation (alcohol-deprivation effect, ADE). ADE index was calculated as a ratio of alcohol consumption after its withdrawal (grams of pure alcohol per kilogram of body mass) to the total alcohol consumption before and after its withdrawal. The existence of alcohol dependence is determined by the value of ADE index exceeding 0.5, a lower meaning of ADE index corresponds to the absence of alcohol dependence.
At the end of 2-month's period of free access to water and alcohol the above estimation of ADE was carried out, and for further experiments the animals with ADE index exceeding 0.5 were selected. These mice, which had practically identical ADE values, were divided into groups of 9-12 animals.
Sodium γ-hydroxybutyrate was used as a reference drug in the experiments with male mice of SHK line.
Peroral administration once a day for 4 days running

[1] = dose 0.5 mg/kg peroral once a day for 4 days during deprivation
[2] = dose 3.0 mg/kg peroral once a day for 4 days during deprivation
[3] = dose 10.0 mg/kg peroral once a day for 4 days during deprivation
[4] = dose 10.0 mg/kg peroral once a day for 4 days
[5] = dose 20.0 mg/kg peroral once a day for 4 days during deprivation
[6] = dose 2.0 mg/kg peroral once a day for 4 days during deprivation
[7] = dose 150 mg/kg peroral once a day for 4 days during deprivation

Br.CCSc1nc2ccccc2[nH]1 [1.1, 2-ethylsulfanyl-1H-benzimidazole hydrobromide]
alcohol-deprivation effect (increasing of alcohol consumption after 4-days' deprivation), observed or not (0.5 mg/kg dose): observed | post-deprivation increasing of alcohol consumption, observed or not (3-20 mg/kg): not observed | Alcohol consumption after deprivation [1]: 4.36 ± 1.10 g/kg | Alcohol consumption before deprivation [1]: 1.96 ± 0.75 g/kg | ADE (ADE index) (dose 0.5 mg/kg peroral once a day for 4 days): 0.65 ± 0.07 | Alcohol consumption after deprivation [2]: 2.60 ± 1.10 g/kg | Alcohol consumption before deprivation [2]: 3.49 ± 0.75 g/kg | ADE (ADE index) (dose 3.0 mg/kg peroral once a day for 4 days): 0.46 ± 0.07 | Alcohol consumption after deprivation [3]: 1.59 ± 1.10 g/kg | Alcohol consumption before deprivation [3]: 2.79 ± 0.75 g/kg | ADE (ADE index) [4]: 0.39 ± 0.07 | Alcohol consumption after deprivation [5]: 1.55 ± 1.10 g/kg | Alcohol consumption before deprivation [5]: 2.56 ± 0.75 g/kg | ADE (ADE index) (dose 20.0 mg/kg peroral once a day for 4 days): 0.31 ± 0.07 | dose at which the decrease of alcohol-deprivation effect appears (dose-dependent, more noticeable at 20 mg/kg): 3 mg/kg

Cl.c1c(C2CCCCC2)cc2c3c(n4c2c1NCC4)CCCC3 [2.2, 5-cyclohexyl-2,3,7,8,9,10-hexahydro-1H-pyrazino[3,2,1-jk]carbazole hydrochloride]
alcohol-deprivation effect (increasing of alcohol consumption after 4-days' deprivation), observed or not (2 and 10 mg/kg doses): observed | Alcohol consumption after deprivation [6]: 3.42 ± 1.16 g/kg | Alcohol consumption before deprivation [6]: 2.61 ± 0.79 g/kg | ADE (ADE index) (dose 2.0 mg/kg peroral once a day for 4 days): 0.58 ± 0.08 | Alcohol consumption after deprivation [3]: 5.05 ± 1.10 g/kg | Alcohol consumption before deprivation [3]: 2.61 ± 0.75 g/kg | ADE (ADE index) [4]: 0.61 ± 0.07 | influence on ADE, in words (used alone in doses of 2-10 mg/kg): does not influence ADE

O=C([O-])CCCO.[Na+] [SHB, sodium γ-hydroxybutyrate]
Alcohol consumption after deprivation [7]: 1.49 ± 1.10 g/kg | Alcohol consumption before deprivation [7]: 2.36 ± 0.75 g/kg | ADE (ADE index) (dose 150 mg/kg peroral once a day for 4 days): 0.45 ± 0.07 | effect on alcohol-deprivation effect, in words (reference drug, 150 mg/kg (Table 3)): significant decreasing of alcohol-deprivation effect
